ChEMBL document CHEMBL1275601, “Striking species difference in the contribution of concentrative nucleoside transporter 2 to nucleoside uptake between mouse and rat hepatocytes” (Antimicrob Agents Chemother, 2010)
Activity calls are given as the source filed them. The calls are words filed in the database; no cut-off is given here.

Assays:
Format in all cases: cell-based
[1] = target: T1, Equilibrative nucleoside transporter 2 (Rattus norvegicus) (UniProt O54699); assay: Transport through ENT2 in rat hepatocytes by oil filtration assay in presence of sodium ions in Kreb-henseleit buffer containing 100 uM NBMPR and 1 mM uridine; conditions: Hepatocyte
T1 sequence (whole entry): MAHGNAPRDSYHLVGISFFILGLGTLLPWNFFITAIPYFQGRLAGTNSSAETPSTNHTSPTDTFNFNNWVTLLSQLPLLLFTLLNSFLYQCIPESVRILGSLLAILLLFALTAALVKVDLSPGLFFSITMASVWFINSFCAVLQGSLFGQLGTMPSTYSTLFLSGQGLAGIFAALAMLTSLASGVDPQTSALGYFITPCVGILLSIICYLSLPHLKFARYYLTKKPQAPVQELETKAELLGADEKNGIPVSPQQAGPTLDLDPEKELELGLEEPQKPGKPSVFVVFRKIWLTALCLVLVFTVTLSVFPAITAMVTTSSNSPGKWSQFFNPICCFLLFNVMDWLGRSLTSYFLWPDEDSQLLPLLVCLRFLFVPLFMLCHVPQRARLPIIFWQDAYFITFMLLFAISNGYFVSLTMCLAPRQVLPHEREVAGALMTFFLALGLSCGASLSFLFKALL

[2] = target: T2, Sodium/nucleoside cotransporter 1 (Rattus norvegicus) (UniProt Q62674); assay: Transport through CNT1 in rat hepatocytes by oil filtration assay; conditions: Hepatocyte
T2 sequence (whole entry): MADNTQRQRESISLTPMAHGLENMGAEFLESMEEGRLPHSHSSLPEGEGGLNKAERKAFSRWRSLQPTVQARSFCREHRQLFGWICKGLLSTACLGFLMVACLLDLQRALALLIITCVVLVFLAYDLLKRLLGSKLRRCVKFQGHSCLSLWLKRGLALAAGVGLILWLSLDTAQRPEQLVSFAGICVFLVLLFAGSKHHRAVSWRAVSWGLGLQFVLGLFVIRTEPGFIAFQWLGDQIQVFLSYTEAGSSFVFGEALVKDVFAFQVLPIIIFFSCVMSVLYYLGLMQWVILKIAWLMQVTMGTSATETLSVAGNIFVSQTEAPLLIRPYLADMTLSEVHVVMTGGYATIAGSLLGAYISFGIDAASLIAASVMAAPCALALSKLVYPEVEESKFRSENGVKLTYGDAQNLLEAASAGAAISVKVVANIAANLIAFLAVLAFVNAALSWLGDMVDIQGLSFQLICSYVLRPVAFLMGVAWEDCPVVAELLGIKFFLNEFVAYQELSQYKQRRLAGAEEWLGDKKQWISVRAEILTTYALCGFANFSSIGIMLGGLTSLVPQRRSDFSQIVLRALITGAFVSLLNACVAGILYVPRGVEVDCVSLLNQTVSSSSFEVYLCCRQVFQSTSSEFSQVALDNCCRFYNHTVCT

Hepatocyte = assay: Transport through CNT1 in mouse hepatocytes by oil filtration assay in presence of sodium ions in Kreb-henseleit buffer
[3] = target: T3, Equilibrative nucleoside transporter 1 (Rattus norvegicus) (UniProt O54698); assay: Transport through ENT1 in rat hepatocytes by oil filtration assay; conditions: Hepatocyte
T3 sequence (whole entry): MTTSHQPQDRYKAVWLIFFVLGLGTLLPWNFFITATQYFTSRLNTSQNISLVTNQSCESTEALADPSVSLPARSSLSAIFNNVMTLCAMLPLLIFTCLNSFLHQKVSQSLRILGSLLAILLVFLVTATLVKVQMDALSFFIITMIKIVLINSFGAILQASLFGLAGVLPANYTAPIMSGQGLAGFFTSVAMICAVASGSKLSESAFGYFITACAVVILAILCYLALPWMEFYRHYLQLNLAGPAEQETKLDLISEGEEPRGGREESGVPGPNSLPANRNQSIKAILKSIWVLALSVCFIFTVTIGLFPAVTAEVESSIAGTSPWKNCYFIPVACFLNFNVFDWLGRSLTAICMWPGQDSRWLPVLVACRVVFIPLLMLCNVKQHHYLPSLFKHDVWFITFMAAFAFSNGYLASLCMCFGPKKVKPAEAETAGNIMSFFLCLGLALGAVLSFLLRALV

[4] = target: T4, Sodium/nucleoside cotransporter 2 (Rattus norvegicus) (UniProt Q62773); assay: Transport through CNT2 in rat hepatocytes by oil filtration assay in presence of sodium ions in Kreb-henseleit buffer containing 100 uM NBMPR and 1 mM inosine; conditions: Hepatocyte
T4 sequence (whole entry): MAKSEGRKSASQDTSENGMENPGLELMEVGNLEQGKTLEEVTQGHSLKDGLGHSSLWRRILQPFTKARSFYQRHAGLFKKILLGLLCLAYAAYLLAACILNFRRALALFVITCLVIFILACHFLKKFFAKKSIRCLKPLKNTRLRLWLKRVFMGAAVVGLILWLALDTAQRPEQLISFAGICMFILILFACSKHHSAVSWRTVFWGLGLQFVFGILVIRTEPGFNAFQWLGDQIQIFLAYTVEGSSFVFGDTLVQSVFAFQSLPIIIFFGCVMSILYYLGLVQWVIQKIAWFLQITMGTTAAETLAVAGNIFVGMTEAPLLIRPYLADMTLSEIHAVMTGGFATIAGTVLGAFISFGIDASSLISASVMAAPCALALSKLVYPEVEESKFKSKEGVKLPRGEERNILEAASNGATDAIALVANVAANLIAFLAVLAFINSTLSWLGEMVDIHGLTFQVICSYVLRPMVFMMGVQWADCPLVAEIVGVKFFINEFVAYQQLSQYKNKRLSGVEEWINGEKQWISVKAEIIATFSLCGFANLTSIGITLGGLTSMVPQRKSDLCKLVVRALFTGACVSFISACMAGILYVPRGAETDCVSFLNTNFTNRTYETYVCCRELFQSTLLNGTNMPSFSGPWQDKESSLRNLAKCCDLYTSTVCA

[5] = target: T4, Sodium/nucleoside cotransporter 2 (Rattus norvegicus); assay: Transport through CNT2 in rat hepatocytes by oil filtration assay in presence of sodium ions in Kreb-henseleit buffer containing 100 uM NBMPR and 1 mM uridine; conditions: Hepatocyte
[6] = target: T5, Equilibrative nucleoside transporter 1 (Mus musculus) (UniProt Q9JIM1); assay: Transport through ENT1 in mouse hepatocytes by oil filtration assay in presence 100 nM of transporter inhibitor NBMRP; conditions: Hepatocyte
T5 sequence (whole entry): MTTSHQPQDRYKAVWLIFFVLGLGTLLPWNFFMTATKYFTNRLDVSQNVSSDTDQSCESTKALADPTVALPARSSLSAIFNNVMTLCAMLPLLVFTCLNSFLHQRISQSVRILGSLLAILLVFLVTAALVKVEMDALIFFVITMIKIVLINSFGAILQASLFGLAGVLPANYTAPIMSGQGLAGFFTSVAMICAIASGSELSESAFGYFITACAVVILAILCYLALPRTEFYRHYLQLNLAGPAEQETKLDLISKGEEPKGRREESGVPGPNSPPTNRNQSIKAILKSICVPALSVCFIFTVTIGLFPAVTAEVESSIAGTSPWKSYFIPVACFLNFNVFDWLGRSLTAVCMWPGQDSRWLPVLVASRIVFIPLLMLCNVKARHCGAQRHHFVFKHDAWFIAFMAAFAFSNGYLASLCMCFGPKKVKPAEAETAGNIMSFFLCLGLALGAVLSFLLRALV

Row | Compound | Activity [1] | Activity [2] | Activity (Hepatocyte) | Activity [3] | Activity [4] | Activity [5] | Activity [6]
1 | Nc1ncnc2c1ncn2[C@@H]1O[C@H](CO)[C@@H](O)[C@H]1O | inactive | inactive | inactive | inactive | inactive | inactive | inactive
2 | NC(=O)c1ncn([C@@H]2O[C@H](CO)[C@@H](O)[C@H]2O)n1 | inactive | Active | inactive | Active | inactive | inactive | inactive
